From US20150005281A1, “PYRIMIDINE-2,4-DIAMINE DERIVATIVES AS KINASE INHIBITORS” (Cellzome Limited, priority 2011, published 2015)

Experiments:
Assay type in all cases: binding
JAK1 = target: T1, JAK1 (Homo sapiens, UniProt P23458); assay: Kinobeads assay with immunodetection, JAK1; conditions: for IC50: Kinobeads assay, mixed Molt4/Ramos lysate, read-out: Inhibition values (IC50) JAK1
T1 construct: endogenous in cells; host or cells: Molt4 (ATCC CRL-1582) and Ramos (ATCC CRL-1596) cells; mixed lysate 1:2
T1 sequence (P23458 whole entry): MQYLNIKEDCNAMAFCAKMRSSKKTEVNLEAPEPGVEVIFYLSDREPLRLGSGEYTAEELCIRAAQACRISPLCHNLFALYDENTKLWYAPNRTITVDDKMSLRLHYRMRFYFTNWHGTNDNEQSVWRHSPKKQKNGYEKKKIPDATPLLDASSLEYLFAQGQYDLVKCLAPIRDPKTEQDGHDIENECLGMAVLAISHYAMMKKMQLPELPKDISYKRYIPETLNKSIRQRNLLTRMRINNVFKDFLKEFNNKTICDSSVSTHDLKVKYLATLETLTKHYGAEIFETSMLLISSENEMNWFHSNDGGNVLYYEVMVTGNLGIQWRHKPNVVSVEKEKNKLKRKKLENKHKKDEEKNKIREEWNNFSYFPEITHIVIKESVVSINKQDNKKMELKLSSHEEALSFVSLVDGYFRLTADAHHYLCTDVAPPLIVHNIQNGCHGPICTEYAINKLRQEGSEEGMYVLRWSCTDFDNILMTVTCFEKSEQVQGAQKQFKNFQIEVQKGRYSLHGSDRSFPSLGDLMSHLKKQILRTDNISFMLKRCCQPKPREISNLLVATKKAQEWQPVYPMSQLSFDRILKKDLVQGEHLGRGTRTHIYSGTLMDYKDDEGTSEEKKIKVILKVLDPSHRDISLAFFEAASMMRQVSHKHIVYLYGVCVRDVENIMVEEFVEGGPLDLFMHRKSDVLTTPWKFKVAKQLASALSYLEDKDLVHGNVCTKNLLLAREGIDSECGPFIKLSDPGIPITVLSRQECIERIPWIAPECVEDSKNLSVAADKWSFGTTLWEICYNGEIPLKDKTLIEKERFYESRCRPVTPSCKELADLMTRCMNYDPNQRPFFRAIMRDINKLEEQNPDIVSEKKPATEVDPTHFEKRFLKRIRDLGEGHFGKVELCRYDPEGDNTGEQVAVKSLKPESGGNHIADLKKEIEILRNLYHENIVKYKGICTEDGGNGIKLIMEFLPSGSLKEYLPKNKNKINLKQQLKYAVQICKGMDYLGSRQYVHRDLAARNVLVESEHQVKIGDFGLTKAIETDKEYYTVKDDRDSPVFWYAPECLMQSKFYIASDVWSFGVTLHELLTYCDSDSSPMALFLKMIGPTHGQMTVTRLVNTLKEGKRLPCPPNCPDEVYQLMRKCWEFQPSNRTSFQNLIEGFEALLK
How it was run: (§1)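 Competition binding: test compounds (9-step 1:3 dilutions of a 5 mM DMSO stock) compete with affinity matrix ligand for kinases in Molt4 plus Ramos lysate (ratio 1:2, 10 mg/mL) over 3 h in a cold room. Captured kinases are detected by specific antibodies in dot blot, and IC50 values are derived per kinase.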

JAK2 = target: T2, JAK2 (Homo sapiens, UniProt O60674); assay: Kinobeads assay with immunodetection, JAK2; conditions: mixed Molt4/Ramos lysate, read-out: Inhibition values (IC50) JAK2
T2 construct: endogenous in cells; host or cells: Molt4 (ATCC CRL-1582) and Ramos (ATCC CRL-1596) cells; mixed lysate 1:2
T2 sequence (O60674 whole entry): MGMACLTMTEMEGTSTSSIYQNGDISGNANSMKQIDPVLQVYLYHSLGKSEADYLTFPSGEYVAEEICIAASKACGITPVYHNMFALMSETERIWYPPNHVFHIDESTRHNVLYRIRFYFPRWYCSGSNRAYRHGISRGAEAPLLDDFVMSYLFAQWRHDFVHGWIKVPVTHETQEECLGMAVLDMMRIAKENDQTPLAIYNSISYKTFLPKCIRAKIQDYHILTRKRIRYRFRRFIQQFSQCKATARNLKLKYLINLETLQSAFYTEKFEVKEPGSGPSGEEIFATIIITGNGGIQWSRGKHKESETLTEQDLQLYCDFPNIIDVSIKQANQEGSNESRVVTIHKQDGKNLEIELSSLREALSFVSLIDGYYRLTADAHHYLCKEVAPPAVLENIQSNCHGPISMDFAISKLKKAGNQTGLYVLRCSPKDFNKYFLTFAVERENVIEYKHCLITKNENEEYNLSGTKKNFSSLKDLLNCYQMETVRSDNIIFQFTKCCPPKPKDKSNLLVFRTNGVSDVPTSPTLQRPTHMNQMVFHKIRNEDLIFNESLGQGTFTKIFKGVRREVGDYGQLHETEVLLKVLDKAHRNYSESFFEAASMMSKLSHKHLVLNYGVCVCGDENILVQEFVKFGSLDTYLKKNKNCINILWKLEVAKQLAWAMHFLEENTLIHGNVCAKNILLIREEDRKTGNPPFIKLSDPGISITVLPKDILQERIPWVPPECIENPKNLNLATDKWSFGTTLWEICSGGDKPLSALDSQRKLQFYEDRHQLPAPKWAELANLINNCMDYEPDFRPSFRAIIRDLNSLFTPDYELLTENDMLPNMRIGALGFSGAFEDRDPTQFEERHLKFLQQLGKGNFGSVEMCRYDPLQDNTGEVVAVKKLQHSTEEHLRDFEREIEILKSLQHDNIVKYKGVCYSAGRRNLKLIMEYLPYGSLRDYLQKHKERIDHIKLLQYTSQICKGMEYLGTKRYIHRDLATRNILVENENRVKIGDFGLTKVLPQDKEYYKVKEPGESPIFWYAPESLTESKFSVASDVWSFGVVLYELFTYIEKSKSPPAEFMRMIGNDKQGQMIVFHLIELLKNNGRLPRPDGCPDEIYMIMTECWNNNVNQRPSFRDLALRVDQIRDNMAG
How it was run: as §1

TYK2 = target: T3, TYK2 (Homo sapiens, UniProt P29597); assay: Kinobeads assay with immunodetection, TYK2; conditions: for IC50: Kinobeads assay, mixed Molt4/Ramos lysate, read-out: Inhibition values (IC50) Tyk2
T3 construct: endogenous in cells; host or cells: Molt4 (ATCC CRL-1582) and Ramos (ATCC CRL-1596) cells; mixed lysate 1:2
T3 sequence (P29597 whole entry): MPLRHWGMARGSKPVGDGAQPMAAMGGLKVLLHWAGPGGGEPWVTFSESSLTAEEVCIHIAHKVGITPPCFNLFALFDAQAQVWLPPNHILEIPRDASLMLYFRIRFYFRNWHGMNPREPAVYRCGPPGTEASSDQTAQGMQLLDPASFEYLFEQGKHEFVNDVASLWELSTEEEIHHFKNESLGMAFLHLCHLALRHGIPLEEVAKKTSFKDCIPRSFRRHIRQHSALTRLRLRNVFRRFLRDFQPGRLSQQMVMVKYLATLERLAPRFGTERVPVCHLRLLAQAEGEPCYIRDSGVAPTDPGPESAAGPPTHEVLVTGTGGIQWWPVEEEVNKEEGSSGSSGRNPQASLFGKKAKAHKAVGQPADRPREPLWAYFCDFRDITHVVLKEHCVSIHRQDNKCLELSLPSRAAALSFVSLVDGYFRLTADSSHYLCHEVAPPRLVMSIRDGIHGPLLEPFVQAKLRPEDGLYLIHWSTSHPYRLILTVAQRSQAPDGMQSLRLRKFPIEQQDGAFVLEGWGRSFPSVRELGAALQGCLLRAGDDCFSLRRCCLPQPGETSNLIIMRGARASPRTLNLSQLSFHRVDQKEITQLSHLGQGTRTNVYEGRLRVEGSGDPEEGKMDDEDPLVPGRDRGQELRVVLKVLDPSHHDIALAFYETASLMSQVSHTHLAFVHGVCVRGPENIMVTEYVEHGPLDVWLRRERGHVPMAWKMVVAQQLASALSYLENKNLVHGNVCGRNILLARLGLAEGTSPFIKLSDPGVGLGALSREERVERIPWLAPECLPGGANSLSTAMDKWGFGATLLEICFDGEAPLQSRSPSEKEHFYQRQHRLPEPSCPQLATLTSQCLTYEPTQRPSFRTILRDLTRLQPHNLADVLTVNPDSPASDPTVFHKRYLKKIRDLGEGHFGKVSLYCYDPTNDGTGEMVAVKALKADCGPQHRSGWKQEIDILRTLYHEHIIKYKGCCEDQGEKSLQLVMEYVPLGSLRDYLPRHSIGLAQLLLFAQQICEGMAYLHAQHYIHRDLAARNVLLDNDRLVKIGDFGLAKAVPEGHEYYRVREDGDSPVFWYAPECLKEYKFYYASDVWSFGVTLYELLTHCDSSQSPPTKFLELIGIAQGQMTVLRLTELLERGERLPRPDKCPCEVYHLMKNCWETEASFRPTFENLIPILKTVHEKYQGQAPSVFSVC
How it was run: as §1

JAK3 = target: T4, JAK3 (Homo sapiens, UniProt P52333); assay: Kinobeads assay with immunodetection, JAK3; conditions: for IC50: Kinobeads assay, mixed Molt4/Ramos lysate, read-out: Inhibition values (IC50) JAK3
T4 construct: endogenous in cells; host or cells: Molt4 (ATCC CRL-1582) and Ramos (ATCC CRL-1596) cells; mixed lysate 1:2
T4 sequence (P52333 1-1124): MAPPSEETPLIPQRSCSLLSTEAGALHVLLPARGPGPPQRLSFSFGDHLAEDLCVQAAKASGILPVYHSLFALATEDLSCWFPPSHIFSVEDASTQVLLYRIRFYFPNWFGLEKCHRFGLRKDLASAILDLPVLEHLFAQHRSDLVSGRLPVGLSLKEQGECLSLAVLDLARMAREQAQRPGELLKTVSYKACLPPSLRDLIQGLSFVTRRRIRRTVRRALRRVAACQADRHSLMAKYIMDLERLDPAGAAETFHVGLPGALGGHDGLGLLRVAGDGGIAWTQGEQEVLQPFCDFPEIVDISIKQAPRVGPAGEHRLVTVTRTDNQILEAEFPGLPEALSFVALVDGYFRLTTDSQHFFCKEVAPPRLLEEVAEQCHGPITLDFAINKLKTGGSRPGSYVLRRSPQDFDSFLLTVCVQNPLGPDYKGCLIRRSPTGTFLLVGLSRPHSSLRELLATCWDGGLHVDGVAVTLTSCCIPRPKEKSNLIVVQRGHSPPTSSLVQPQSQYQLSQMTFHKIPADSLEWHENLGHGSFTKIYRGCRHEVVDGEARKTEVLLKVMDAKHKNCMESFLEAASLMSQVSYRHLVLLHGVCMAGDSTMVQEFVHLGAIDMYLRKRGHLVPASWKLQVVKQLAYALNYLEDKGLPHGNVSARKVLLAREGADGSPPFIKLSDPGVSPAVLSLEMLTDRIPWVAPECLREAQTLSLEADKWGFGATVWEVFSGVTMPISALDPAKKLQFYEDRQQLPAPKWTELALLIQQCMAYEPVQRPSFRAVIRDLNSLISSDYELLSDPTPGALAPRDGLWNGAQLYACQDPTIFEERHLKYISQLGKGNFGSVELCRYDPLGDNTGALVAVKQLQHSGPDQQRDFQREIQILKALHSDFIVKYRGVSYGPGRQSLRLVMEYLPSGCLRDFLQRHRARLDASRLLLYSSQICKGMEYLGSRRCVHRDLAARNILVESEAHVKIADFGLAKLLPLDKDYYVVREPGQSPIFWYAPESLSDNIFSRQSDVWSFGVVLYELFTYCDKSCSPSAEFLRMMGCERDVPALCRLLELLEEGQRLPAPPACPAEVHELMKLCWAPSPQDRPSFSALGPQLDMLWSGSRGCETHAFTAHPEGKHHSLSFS
How it was run: as §1

SMILES | IC50 (JAK1) [nM] | IC50 (JAK2) [nM] | IC50 (TYK2) [nM] | Selectivity ratio over JAK2, Tyk2 (TYK2) | IC50 (JAK3) [nM] | Selectivity ratio over JAK2, JAK3 (JAK3) | Selectivity ratio over JAK2, JAK1 (JAK1)
CC(=O)N1CCCC[C@@H]1CNc1nc(Nc2cnn(C)c2)ncc1Cl [Example 39, (R)-1-(2-(((5-chloro-2-((1-methyl-1H-pyrazol-4-yl)amino)pyrimidin-4-yl)amino)methyl)piperidin-1-yl)ethanone] | 100 to 1000 | 1000 to 10000 | < 100 | Tyk2 = 8 | 100 to 1000 | – | –
CC(=O)N1CCCC[C@@H]1CNc1nc(Nc2cnn(CCO)c2)ncc1Cl [Example 40, (R)-1-(2-(((5-chloro-2-((1-(2-hydroxyethyl)-1H-pyrazol-4-yl)amino)pyrimidin-4-yl)amino)methyl)piperidin-1-yl)ethanone] | 100 to 1000 | 100 to 1000 | < 100 | Tyk2 = 10 | < 100 | – | –
Cn1cc(Nc2ncc(Cl)c(NCC3CCOCC3)n2)cn1 [Example 46, 5-chloro-N^2-(1-methyl-1H-pyrazol-4-yl)-N^4-((tetrahydro-2H-pyran-4-yl)methyl)pyrimidine-2,4-diamine] | 100 to 1000 | 1000 to 10000 | 100 to 1000 | – | 100 to 1000 | – | JAK1 = 6
Cn1cc(Nc2ncc(Cl)c(NCC3CCCCC3)n2)cn1 [Example 47, 5-chloro-N^4-(cyclohexylmethyl)-N^2-(1-methyl-1H-pyrazol-4-yl)pyrimidine-2,4-diamine] | 100 to 1000 | 1000 to 10000 | 100 to 1000 | – | 100 to 1000 | JAK3 = 5 | –
Cn1cc(Nc2ncc(Cl)c(NC[C@H]3CCCN3CCO)n2)cn1 [Example 48, (R)-2-(2-((5-chloro-2-(1-methyl-1H-pyrazol-4-ylamino)pyrimidin-4-ylamino)methyl)pyrrolidin-1-yl)ethanol] | 100 to 1000 | 1000 to 10000 | 100 to 1000 | – | 100 to 1000 | JAK3 = 52 | –
Cn1cc(Nc2ncc(Cl)c(NC[C@H]3CCCN3CCC#N)n2)cn1 [Example 49, (R)-3-(2-((5-chloro-2-(1-methyl-1H-pyrazol-4-ylamino)pyrimidin-4-ylamino)methyl)pyrrolidin-1-yl)propanenitrile] | < 100 | 100 to 1000 | < 100 | Tyk2 = 42 | < 100 | – | –
Cn1cc(Nc2ncc(Cl)c(NC[C@H]3CCCN3CCS(C)(=O)=O)n2)cn1 [Example 50, (R)-5-chloro-N^2-(1-methyl-1H-pyrazol-4-yl)-N^4-((1-(2-(methylsulfonyl)ethyl)pyrrolidin-2-yl)methyl)pyrimidine-2,4-diamine] | < 100 | 100 to 1000 | < 100 | Tyk2 = 25 | < 100 | – | –
CCS(=O)(=O)N1CCC[C@@H]1CNc1nc(Nc2cnn(C)c2)ncc1Cl [Example 51, (R)-5-chloro-N^4-((1-(ethylsulfonyl)pyrrolidin-2-yl)methyl)-N^2-(1-methyl-1H-pyrazol-4-yl)pyrimidine-2,4-diamine] | < 100 | 100 to 1000 | < 100 | Tyk2 = 14 | < 100 | – | –
Cn1cc(Nc2ncc(Cl)c(NC[C@H]3CCCN3C(=O)CC#N)n2)cn1 [Example 52, (R)-3-(2-((5-chloro-2-(1-methyl-1H-pyrazol-4-ylamino)pyrimidin-4-ylamino)methyl)pyrrolidin-1-yl)-3-oxopropanenitrile] | < 100 | 100 to 1000 | < 100 | Tyk2 = 30 | < 100 | – | –
Cn1cc(Nc2ncc(Cl)c(NC[C@H]3CCCN3C(=O)CO)n2)cn1 [Example 54, (R)-1-(2-((5-chloro-2-(1-methyl-1H-pyrazol-4-ylamino)pyrimidin-4-ylamino)methyl)pyrrolidin-1-yl)-2-hydroxyethanone] | < 100 | 100 to 1000 | < 100 | Tyk2 = 12 | 100 to 1000 | – | –
Cn1cc(Nc2ncc(Cl)c(NC[C@H]3CCN(CCS(C)(=O)=O)C3)n2)cn1 [Example 55, (R)-5-chloro-N^2-(1-methyl-1H-pyrazol-4-yl)-N^4-((1-(2-(methylsulfonyl)ethyl)pyrrolidin-3-yl)methyl)pyrimidine-2,4-diamine] | < 100 | 100 to 1000 | 100 to 1000 | – | < 100 | – | JAK1 = 11
Cn1cc(Nc2ncc(Cl)c(NC[C@H]3CCN(CCC#N)C3)n2)cn1 [Example 57, (R)-3-(3-((5-chloro-2-(1-methyl-1H-pyrazol-4-ylamino)pyrimidin-4-ylamino)methyl)pyrrolidin-1-yl)propanenitrile] | 100 to 1000 | 1000 to 10000 | 100 to 1000 | – | < 100 | – | JAK1 = 15

Now from value to compound:

IC50 (JAK1) [nM] | IC50 (JAK2) [nM] | IC50 (TYK2) [nM] | Selectivity ratio over JAK2, Tyk2 (TYK2) | IC50 (JAK3) [nM] | Selectivity ratio over JAK2, JAK3 (JAK3) | Selectivity ratio over JAK2, JAK1 (JAK1) | SMILES
100 to 1000 | 100 to 1000 | 100 to 1000 | Tyk2 = 6 | 100 to 1000 | – | – | C=CC(=O)N1CCCC[C@@H]1CNc1nc(Nc2cnn(C)c2)ncc1Cl [Example 41, (R)-1-(2-(((5-chloro-2-((1-methyl-1H-pyrazol-4-yl)amino)pyrimidin-4-yl)amino)methyl)piperidin-1-yl)prop-2-en-1-one]
100 to 1000 | 100 to 1000 | < 100 | Tyk2 = 4 | 100 to 1000 | – | – | C=CC(=O)N1CCCC[C@@H]1CNc1nc(Nc2cnn(CCO)c2)ncc1Cl [Example 42, (R)-1-(2-(((5-chloro-2-((1-(2-hydroxyethyl)-1H-pyrazol-4-yl)amino)pyrimidin-4-yl)amino)methyl)piperidin-1-yl)prop-2-en-1-one]
100 to 1000 | 100 to 1000 | < 100 | – | < 100 | Jak3 = 18 | – | Cn1cc(Nc2ncc(Cl)c(NC[C@H]3CCCCN3S(C)(=O)=O)n2)cn1 [Example 43, (R)-5-chloro-N^2-(1-methyl-1H-pyrazol-4-yl)-N^4-((1-(methylsulfonyl)piperidin-2-yl)methyl)pyrimidine-2,4-diamine]
100 to 1000 | 100 to 1000 | 100 to 1000 | – | < 100 | JAK3 = 20 | – | CS(=O)(=O)N1CCCC[C@@H]1CNc1nc(Nc2cnn(CCO)c2)ncc1Cl [Example 44, (R)-2-(4-((5-chloro-4-(((1-(methylsulfonyl)piperidin-2-yl)methyl)amino)pyrimidin-2-yl)amino)-1H-pyrazol-1-yl)ethanol]
100 to 1000 | 1000 to 10000 | 100 to 1000 | – | < 100 | JAK3 = 160 | – | C=CS(=O)(=O)N1CCCC[C@@H]1CNc1nc(Nc2cnn(C)c2)ncc1Cl [Example 45, (R)-5-chloro-N^2-(1-methyl-1H-pyrazol-4-yl)-N^4-((1-(vinylsulfonyl)piperidin-2-yl)methyl)pyrimidine-2,4-diamine]
< 100 | 1000 to 10000 | 100 to 1000 | – | 100 to 1000 | – | JAK1 = 93 | CN(C)CC(=O)N1CCC[C@@H]1CNc1nc(Nc2cnn(C)c2)ncc1Cl [Example 53, (R)-1-(2-((5-chloro-2-(1-methyl-1H-pyrazol-4-ylamino)pyrimidin-4-ylamino)methyl)pyrrolidin-1-yl)-2-(dimethylamino)ethanone]
100 to 1000 | 1000 to 10000 | 1000 to 10000 | – | 1000 to 10000 | – | JAK1 = 46 | Cn1cc(Nc2ncc(Cl)c(NC[C@H]3CCN(CCO)C3)n2)cn1 [Example 56, (R)-2-(3-((5-chloro-2-(1-methyl-1H-pyrazol-4-ylamino)pyrimidin-4-ylamino)methyl)pyrrolidin-1-yl)ethanol]
